Results on 35 sequences are retold here after patent publication US7785828B1 (priority 2003, dated 2010).

The first experiment concerns Fusarium graminearum. The class given is cell-based. Details: key: + indicates a 1- to 5-fold improvement in activity compared to a reference defensin protein; ++ indicates a >5- to 10-fold improvement; +++ indicates a >10-fold improvement; “0” indicates no activity detected.
Conditions: not given
For the sequence “QKLCERPSGTWSGVCMNSNACKNQCIRLEGARHGSCNYVFPAHKCICYFPC (Defensin like) [L2-53]”, the “Activity (1): antifungal activity of the NP against Fusarium graminearium” value (from here on “Activity (1): antifungal activity”) came to 0.

Still in this experiment, the particulars now being: Table 2B (Dm-AMP1 based libraries); improvement compared to reference defensin protein (Rs-AFP2 for Table 2B [sic]).
With “NLCERASKTWTGNCGNTKHCDNQCRSWEGAKHGACHKRSGKWKCFCYFNC (Defensin like) [L10-77]”, the “Activity (1): antifungal activity” value is on record as “++ (++ indicates a >5- to 10-fold improvement)”.

Take “NLCERASKTWTGNCGNTKHCDNQCKSWEGAKHGACHKRSGKWKCFCYFNC (Defensin like) [L9-04]”: the “Activity (1): antifungal activity” value is “++ (++ indicates a >5- to 10-fold improvement)”.

Regarding “NLCERASKTWTGNCGNTKHCDNQCRNWEGAKHGACHVRSGKHKCFCYFNC (Defensin like) [L6-20]”, the “Activity (1): antifungal activity” value was “++ (++ indicates a >5- to 10-fold improvement)”.

Take “NLCERASKTWTGNCGNTKHCDNQCRNWESAAHGACHKRSGKWKCFCYFNC (Defensin like) [L3-98]”: the “Activity (1): antifungal activity” value is “++ (++ indicates a >5- to 10-fold improvement)”.

As to “NLCERASKTWTGNCGNTKHCDTQCKIWEGAKHGACHKRSGKWKCFCYFNC (Defensin like) [L3-77]”, the “Activity (1): antifungal activity” value is reported as “++ (++ indicates a >5- to 10-fold improvement)”.

With “NLCERASKTWTGNCGNTKHCDNQCKSWEGAKHGACHKRNGKWKCFCYFNC (Defensin like) [L10-51]”, the “Activity (1): antifungal activity” value is “++ (++ indicates a >5- to 10-fold improvement)”.

As for “NLCERASKTWTGNCGNTKHCDTQCKSWEGAKHGACHKRSGKWKCFCYFNC (Defensin like) [L5-21]”, the “Activity (1): antifungal activity” value is listed as “+ (+ indicates a 1- to 5-fold improvement in activity compared to a reference defensin protein)”.

As for “NLCERASKTWTGNCGNTKHCDNQCKNWEGAKHGACHKRSGKWKCFCYFNC (Defensin like) [L10-25]”, the “Activity (1): antifungal activity” value is reported as “+ (+ indicates a 1- to 5-fold improvement in activity compared to a reference defensin protein)”.

Take “NLCERASKTWTGNCGNTKHCDNQCKNWEGAKHGACHVRSGKHKCFCYFNC (Defensin like) [L6-23]”: the “Activity (1): antifungal activity” value is given as “++ (++ indicates a >5- to 10-fold improvement)”.

On to “NLCERASKTWTGNCGNTKHCDTQCKNWESAKHGACHVRSGKHKCFCYFNC (Defensin like) [L3-28]”, for which the “Activity (1): antifungal activity” value is “++ (++ indicates a >5- to 10-fold improvement)”.

Consider “NLCERASKTWAGNCGNTKHCDNQCRSWEGAKHGACHVRNGKWKCFCYFNC (Defensin like) [L10-33]”, for which the “Activity (1): antifungal activity” value is recorded as “+ (+ indicates a 1- to 5-fold improvement in activity compared to a reference defensin protein)”.

In the case of “NLCERASKTWTGNCGNTKHCDTQCRNWEGAKHGACHKRSGKWKCFCYFNC (Defensin like) [L6-33]”, the “Activity (1): antifungal activity” value was “++ (++ indicates a >5- to 10-fold improvement)”.

On to “NLCERASKTWSGDCGNTKHCDNQCRNWEGAKHGACHKRNGKWKCFCYFNC (Defensin like) [L10-62]”, for which the “Activity (1): antifungal activity” value is listed as “++ (++ indicates a >5- to 10-fold improvement)”.

Consider “NLCERASKTWTGNCGNTKHCDNQCKNWEGAKHGACHVRNGKWKCFCYFNC (Defensin like) [L6-03]”, for which the “Activity (1): antifungal activity” value is on record as “+++ (+++ indicates a >10-fold improvement)”.

Turning to “NLCERASKTWTGNCGNTKHCDNQCKNWEGAAHGACHKRSGKWKCFCYFNC (Defensin like) [L10-80]”, the “Activity (1): antifungal activity” value is given as “++ (++ indicates a >5- to 10-fold improvement)”.

For the sequence “NLCERASKTWTGNCGNTKHCDNQCKSWEGAKHGACHVRSGKHKCFCYFNC (Defensin like) [L5-37]”, the “Activity (1): antifungal activity” value was “++ (++ indicates a >5- to 10-fold improvement)”.

For the sequence “ELCERASLTWTGNCGNTKHCDTQCKSWEGAKHGACHKRSGKWKCFCYFNC (Defensin like) [L3-96]”, the “Activity (1): antifungal activity” value was “+ (+ indicates a 1- to 5-fold improvement in activity compared to a reference defensin protein)”.

Regarding “NLCERASKTWTGNCGNTKHCDNQCRNWEGAKHGACHVRSGKWKCFCYFNC (Defensin like) [L10-79]”, the “Activity (1): antifungal activity” value was “++ (++ indicates a >5- to 10-fold improvement)”.

With “NLCERASKTWTGNCGNTKHCDNQCRNWEGAKHGACHKRNGKWKCFCYFNC (Defensin like) [L9-12]”, the “Activity (1): antifungal activity” value is “+++ (+++ indicates a >10-fold improvement)”.

Regarding “NLCERASKTWTGNCGNTKHCDNQCRNWEGAKHGACHVRNGKHKCFCYFNC (Defensin like) [L6-35]”, the “Activity (1): antifungal activity” value is “++ (++ indicates a >5- to 10-fold improvement)”.

On to “NLCERASKTWTGNCGNTKHCDTQCRSWEGAKHGACHKRNGKWKCFCYFNC (Defensin like) [L10-14]”, for which the “Activity (1): antifungal activity” value is “++ (++ indicates a >5- to 10-fold improvement)”.

As to “NLCERASKTWTGNCGNTKHCDTQCRSWEGAKHGACHVRSGKHKCFCYFNC (Defensin like) [L5-32]”, the “Activity (1): antifungal activity” value is “+ (+ indicates a 1- to 5-fold improvement in activity compared to a reference defensin protein)”.

With “NLCERASKTWTGNCGNTKHCDTKCRSWESAKHGACHKRNGKWKCFCYFNC (Defensin like) [L3-46]”, the “Activity (1): antifungal activity” value is given as “++ (++ indicates a >5- to 10-fold improvement)”.

Staying with this experiment, now noted: Table 2C (mixed diversity library); improvement compared to reference defensin protein DmAMP.
“DGVKLCEKPSQTWTGHCGNTKHCDKQCKNWEGAKHGACHKRNGKWKCFCYFNC (Defensin like) [L7-178]”: the “Activity (1): antifungal activity” value is given as “++ (++ indicates a >5- to 10-fold improvement)”.

For the sequence “DGVKLCEKPSQTWSHCGNTKHCDNQCKNWEGAAHGACHKRSGKWKCFCYFNC (Defensin like) [L7-231]”, the “Activity (1): antifungal activity” value is listed as “++ (++ indicates a >5- to 10-fold improvement)”.

With “DGVKLCEKASQTWTGNCGNTKHCDNQCKNWEKAKHGACHKRSGKWKCFCYFNC (Defensin like) [L7-42]”, the “Activity (1): antifungal activity” value was “+ (+ indicates a 1- to 5-fold improvement in activity compared to a reference defensin protein)”.

On to “DGVKLCEKPSQTWTGNCGNTKHCDKQCRNWEKAKHGACHKRNGKWKCFCYFNC (Defensin like) [L7-46]”, for which the “Activity (1): antifungal activity” value was “+ (+ indicates a 1- to 5-fold improvement in activity compared to a reference defensin protein)”.

As to “DGVKLCERASKTWTGNCGNTKHCDKQCKNWEGAKHGACHKRNGKWKCFCYFNC (Defensin like) [L7-107]”, the “Activity (1): antifungal activity” value is listed as “+ (+ indicates a 1- to 5-fold improvement in activity compared to a reference defensin protein)”.

For “DGVKLCERASKTWTGHCGNTKHCDKQCKNWEKAAHGACHVRNGKWKCFCYFNC (DGVKLCERASKTWSGHCGNTKHCDKQCKNWEKAAHGACHVRNGKWKCFCYFSC; Defensin like) [L7-93]”, the “Activity (1): antifungal activity” value is “+++ (+++ indicates a >10-fold improvement)”.

For the sequence “DGVKLCEKPSKTWSGHCGNTKHCDKQCKNWEKAKHGACHKRNGKWKCFCYFNC (Defensin like) [L7-113]”, the “Activity (1): antifungal activity” value is “+ (+ indicates a 1- to 5-fold improvement in activity compared to a reference defensin protein)”.

For the sequence “DGVKLCERASQTWTGHCGNTKHCDKQCKSWEKAKHGACHVRNGKWKCFCYFNC (Defensin like) [L7-15]”, the “Activity (1): antifungal activity” value is reported as “++ (++ indicates a >5- to 10-fold improvement)”.

Another experiment deals with Fusarium graminearum. The class given is cell-based.
Conditions: not given
This is another data set of the same source.
Take “NLCERASKTWSGNCGNTKHCDTQCRNWEGAAHGACHVRNGKHKCFCYFNC (NLCERASKTWSGNCGNTKHCDTQCKNWEGAAHGACHVRNGKHKCFCYFNC; Defensin like) [L6-57]”: the “Antifungal activity, Fusarium graminearum (improvement compared to DmAMP1)” value was “+++ (key: + indicating 1- to 5-fold improvement compared to DmAMP1; ++ indicating >5- to 10-fold improvement; +++ indicating >10-fold improvement)”.

Take “NLCERASKTWSGNCGNTKHCDNQCKSWEGAAHGACHKRNGKWKCFCYFNC (Defensin like) [L9-18]”: the “Antifungal activity, Fusarium graminearum (improvement compared to DmAMP1)” value is given as “++ (key: + indicating 1- to 5-fold improvement compared to DmAMP1; ++ indicating >5- to 10-fold improvement; +++ indicating >10-fold improvement)”.

The next experiment relates to Septoria tritici. The class given is cell-based.
Conditions: not given
In the case of “NLCERASKTWSGNCGNTKHCDTQCRNWEGAAHGACHVRNGKHKCFCYFNC (NLCERASKTWSGNCGNTKHCDTQCKNWEGAAHGACHVRNGKHKCFCYFNC; Defensin like) [L6-57]”, the “Antifungal activity, Septoria tritici (improvement compared to DmAMP1)” value is given as “+ (key: + indicating 1- to 5-fold improvement compared to DmAMP1; ++ indicating >5- to 10-fold improvement; +++ indicating >10-fold improvement)”.

In the case of “NLCERASKTWSGNCGNTKHCDNQCKSWEGAAHGACHKRNGKWKCFCYFNC (Defensin like) [L9-18]”, the “Antifungal activity, Septoria tritici (improvement compared to DmAMP1)” value was “++ (key: + indicating 1- to 5-fold improvement compared to DmAMP1; ++ indicating >5- to 10-fold improvement; +++ indicating >10-fold improvement)”.

For “NLCERASKTWSGNCGNTKHCDNQCRNWEGAAHGACHVRNGKHKCFCYFNC (Defensin like) [L6-59]”, the “Antifungal activity, Septoria tritici (improvement compared to DmAMP1)” value is given as “+ (key: + indicating 1- to 5-fold improvement compared to DmAMP1; ++ indicating >5- to 10-fold improvement; +++ indicating >10-fold improvement)”.

The test system of the next experiment is Mycosphaerella fijiensis. The class given is cell-based.
Conditions: not given
Consider “NLCERASKTWSGNCGNTKHCDTQCRNWEGAAHGACHVRNGKHKCFCYFNC (NLCERASKTWSGNCGNTKHCDTQCKNWEGAAHGACHVRNGKHKCFCYFNC; Defensin like) [L6-57]”, for which the “Antifungal activity, Mycosphaerella fijiensis (improvement compared to DmAMP1)” value is reported as “++ (key: + indicating 1- to 5-fold improvement compared to DmAMP1; ++ indicating >5- to 10-fold improvement; +++ indicating >10-fold improvement)”.

On to “NLCERASKTWSGNCGNTKHCDNQCKSWEGAAHGACHKRNGKWKCFCYFNC (Defensin like) [L9-18]”, for which the “Antifungal activity, Mycosphaerella fijiensis (improvement compared to DmAMP1)” value is recorded as “+ (key: + indicating 1- to 5-fold improvement compared to DmAMP1; ++ indicating >5- to 10-fold improvement; +++ indicating >10-fold improvement)”.

On to “NLCERASKTWSGNCGNTKHCDNQCRNWEGAAHGACHVRNGKHKCFCYFNC (Defensin like) [L6-59]”, for which the “Antifungal activity, Mycosphaerella fijiensis (improvement compared to DmAMP1)” value was “+ (key: + indicating 1- to 5-fold improvement compared to DmAMP1; ++ indicating >5- to 10-fold improvement; +++ indicating >10-fold improvement)”.
